Assay results as given in patent US8440836B2, “Heterocyclic alkanol derivatives” (Bayer Intellectual Property GmbH, priority 2010, dated 2013).

test system: Leptosphaeria nodorum; experiment: Leptosphaeria nodorum test (wheat)/protective; format: in vivo; settings: wheat plants, protective spray, 500 ppm active ingredient, evaluation 8 days after inoculation

Compound	efficacy
OC(Cc1cncs1)(Cc1ccccc1F)C1(Cl)CC1 (stereo not shown) [Compound 60]	100%
CC(C)(C)C(O)(COc1ccc(SC(F)(F)F)cc1)c1cncs1 (stereo not shown) [Compound 41]	100%
CC(C)(C)C(O)(COc1ccc(C2CC2)cc1)c1cncs1 (stereo not shown) [Compound 79]	86%
CO/N=C/c1ccc(OCC(O)(c2cncs2)C(C)(C)C)cc1 (stereo not shown) [Compound 3]	92%
OC(Cc1cncs1)(Cc1ccccc1Cl)C1(Cl)CC1 (stereo not shown) [Compound 57]	88%
CC(C)(/C=C/Cl)C(O)(COc1ccc(I)cc1)c1cncs1 (stereo not shown) [Compound 53]	83%
CC(C)(C)C(O)(COc1ccc(I)cc1)c1cncs1 (stereo not shown) [Compound 1]	100%
CC(C)(C)C(O)(COc1ccc(Br)cc1)c1cncs1 (stereo not shown) [Compound 2]	100%

test system: not listed separately; experiment: logP by HPLC (EEC Directive 79/831 Annex V.A8); format: physicochemical; settings: HPLC reversed-phase C18, method [a]: LC-MS, pH 2.7, 0.1% aqueous formic acid / acetonitrile, gradient 10% to 95% acetonitrile

Compound	logP
OC(Cc1cncs1)(Cc1ccccc1F)C1(Cl)CC1 (stereo not shown) [Compound 60]	logP 3.06^[a]; [M + H]^+ = 312
CC(C)(C)C(O)(COc1ccc(SC(F)(F)F)cc1)c1cncs1 (stereo not shown) [Compound 41]	logP 3.98^[a]; [M + H]^+ = 378
CC(C)(C)C(O)(COc1ccc(C2CC2)cc1)c1cncs1 (stereo not shown) [Compound 79]	logP 3.73^[a]; [M + H]^+ = 318
CC(C)(/C=C/Cl)C(O)(COc1ccc(I)cc1)c1cncs1 (stereo not shown) [Compound 53]	logP 3.92^[a]; [M + H]^+ = 450
CC1(C(O)(COc2ccc(Cl)cc2)c2cncs2)CC1 (stereo not shown) [Compound 14]	logP 3.11^[a]; [M + H]^+ = 310; 312
CC1(C(O)(COc2ccc(Br)cc2)c2cncs2)CCCCC1 (stereo not shown) [Compound 33]	logP 4.37^[a]; [M + H]^+ = 396/398

test system: Microdochium nivale; experiment: Microdochium test (wheat)/seed treatment; format: in vivo; settings: dose 50 g/dt, greenhouse 10° C. 21 days
Procedure: The test was conducted under greenhouse conditions. Wheat seeds treated with an inventive active compound or a combination of inventive active compounds were sown in 6×6 cm vessels, into a mixture of steamed field soil and sand (1:1). The test compound(s) were dissolved in N-methyl-2-pyrrolidone and diluted to the desired concentration with water. Wheat kernels were inoculated with spores of Microdochium nivale. The infected and ground kernels were distributed between the treated wheat seeds. The seeds were covered with a top layer of steamed field soil and sand (1:1) and incubated in a greenhouse at 10° C. for 21 days.

Compound	efficiency (emerged plants)
OC(Cc1cncs1)(Cc1ccccc1F)C1(Cl)CC1 (stereo not shown) [Compound 60]	100%
OC(Cc1cncs1)(Cc1ccccc1Cl)C1(Cl)CC1 (stereo not shown) [Compound 57]	78%

test system: Leptosphaeria maculans; experiment: Leptosphaeria test (oilseed rape)/seed treatment; format: in vivo; settings: rapeseed treatment, dose 50 g/dt, greenhouse 10° C. 14 days and 18° C. 7 days
Procedure: The test was conducted under greenhouse conditions. […] treated with an inventive active compound or a combination of inventive active compounds were sown in 6×6 cm vessels, into a mixture of steamed field soil and to sand (1:1). The test compound(s) were dissolved in N-methyl-2-pyrrolidone and diluted to the desired concentration with water. Perlite was inoculated with spores of Leptosphaeria maculans. The infected perlite was distributed between the treated […]. The seeds were covered with a top layer of steamed field soil and sand (1:1) and incubated in a greenhouse at 10° C. for 14 days and at 18° C. for 7 days.

Compound	efficiency (emerged plants)
OC(Cc1cncs1)(Cc1ccccc1F)C1(Cl)CC1 (stereo not shown) [Compound 60]	80%
OC(Cc1cncs1)(Cc1ccccc1Cl)C1(Cl)CC1 (stereo not shown) [Compound 57]	80%
CC(C)(C)C(O)(COc1ccc(I)cc1)c1cncs1 (stereo not shown) [Compound 1]	70%

test system: Blumeria graminis f.sp. hordei; experiment: Blumeria graminis test (barley)/protective; format: in vivo; settings: barley plants, protective spray, 500 ppm active ingredient, evaluation 7 days after inoculation

Compound	efficacy
OC(Cc1cncs1)(Cc1ccccc1F)C1(Cl)CC1 (stereo not shown) [Compound 60]	100%
CC(C)(C)C(O)(COc1ccc(SC(F)(F)F)cc1)c1cncs1 (stereo not shown) [Compound 41]	100%
CC(C)(C)C(O)(COc1ccc(C2CC2)cc1)c1cncs1 (stereo not shown) [Compound 79]	100%
CO/N=C/c1ccc(OCC(O)(c2cncs2)C(C)(C)C)cc1 (stereo not shown) [Compound 3]	100%
OC(Cc1cncs1)(Cc1ccccc1Cl)C1(Cl)CC1 (stereo not shown) [Compound 57]	100%
CC(C)(/C=C/Cl)C(O)(COc1ccc(I)cc1)c1cncs1 (stereo not shown) [Compound 53]	94%
CC(C)(C)C(O)(COc1ccc(I)cc1)c1cncs1 (stereo not shown) [Compound 1]	100%
CC(C)(C)C(O)(COc1ccc(Br)cc1)c1cncs1 (stereo not shown) [Compound 2]	100%
CC1(C(O)(COc2ccc(Br)cc2)c2cncs2)CCCCC1 (stereo not shown) [Compound 33]	89%

test system: Septoria tritici; experiment: Septoria tritici test (wheat)/protective; format: in vivo; settings: wheat plants, protective spray, 500 ppm active ingredient, evaluation 21 days after inoculation

Compound	efficacy
OC(Cc1cncs1)(Cc1ccccc1F)C1(Cl)CC1 (stereo not shown) [Compound 60]	94%
CC(C)(C)C(O)(COc1ccc(SC(F)(F)F)cc1)c1cncs1 (stereo not shown) [Compound 41]	71%
CC(C)(C)C(O)(COc1ccc(C2CC2)cc1)c1cncs1 (stereo not shown) [Compound 79]	88%
CO/N=C/c1ccc(OCC(O)(c2cncs2)C(C)(C)C)cc1 (stereo not shown) [Compound 3]	83%
OC(Cc1cncs1)(Cc1ccccc1Cl)C1(Cl)CC1 (stereo not shown) [Compound 57]	70%
CC(C)(/C=C/Cl)C(O)(COc1ccc(I)cc1)c1cncs1 (stereo not shown) [Compound 53]	100%
CC(C)(C)C(O)(COc1ccc(I)cc1)c1cncs1 (stereo not shown) [Compound 1]	100%
CC(C)(C)C(O)(COc1ccc(Br)cc1)c1cncs1 (stereo not shown) [Compound 2]	100%

test system: Venturia inaequalis; experiment: Venturia test (apple)/protective; settings: apple plants, protective spray, 100 ppm active ingredient, evaluation 10 days after inoculation
Procedure: • Solvent: 24.5 parts by weight of acetone • 24.5 parts by weight of dimethylacetamide • Emulsifier: 1 part by weight of alkylaryl polyglycol ether
To produce an appropriate active ingredient formulation, 1 part by weight of active ingredient is mixed with the specified amounts of solvent and emulsifier, and the concentrate is diluted with water to the desired concentration. To test for protective activity, young plants are sprayed with the active ingredient formulation at the stated application rate. After the spray coating has dried on, the plants are inoculated with an aqueous conidia suspension of the apple scab pathogen Venturia inaequalis and then remain in an incubation cabin at about 20° C. and 100% relative air humidity for 1 day. The plants are then placed in a greenhouse at about 21° C. and a relative air humidity of about 90%. Evaluation follows 10 days after the inoculation.

Compound	efficacy
OC(Cc1cncs1)(Cc1ccccc1F)C1(Cl)CC1 (stereo not shown) [Compound 60]	100%
CC(C)(C)C(O)(COc1ccc(SC(F)(F)F)cc1)c1cncs1 (stereo not shown) [Compound 41]	95%
CC(C)(C)C(O)(COc1ccc(C2CC2)cc1)c1cncs1 (stereo not shown) [Compound 79]	100%
CO/N=C/c1ccc(OCC(O)(c2cncs2)C(C)(C)C)cc1 (stereo not shown) [Compound 3]	100%
OC(Cc1cncs1)(Cc1ccccc1Cl)C1(Cl)CC1 (stereo not shown) [Compound 57]	100%
CC(C)(C)C(O)(COc1ccc(I)cc1)c1cncs1 (stereo not shown) [Compound 1]	99%
CC(C)(C)C(O)(COc1ccc(Br)cc1)c1cncs1 (stereo not shown) [Compound 2]	93%
CC1(C(O)(COc2ccc(Cl)cc2)c2cncs2)CC1 (stereo not shown) [Compound 14]	98%
CC1(C(O)(COc2ccc(Br)cc2)c2cncs2)CCCCC1 (stereo not shown) [Compound 33]	99%

test system: Fusarium culmorum; experiment: Fusarium test (wheat)/seed treatment; format: in vivo; settings: dose 50 g/dt, greenhouse 20° C. 14 days
Procedure: The test was conducted under greenhouse conditions. Wheat seeds treated with an inventive active compound or a combination of inventive active compounds were sown in 6×6 cm vessels, into a mixture of steamed field soil and sand (1:1). The test compound(s) were dissolved in N-methyl-2-pyrrolidone and diluted to the desired concentration with water. Wheat kernels were inoculated with spores of Fusarium culmorum. The infected and ground kernels were distributed between the treated wheat seeds. The seeds were covered with a top layer of clay granules and incubated in a greenhouse at 20° C. for 14 days. Evaluation was effected by counting the plants which emerged.

Compound	efficiency (emerged plants)
OC(Cc1cncs1)(Cc1ccccc1F)C1(Cl)CC1 (stereo not shown) [Compound 60]	89%
OC(Cc1cncs1)(Cc1ccccc1Cl)C1(Cl)CC1 (stereo not shown) [Compound 57]	89%
CC(C)(C)C(O)(COc1ccc(I)cc1)c1cncs1 (stereo not shown) [Compound 1]	100%

test system: Sphaerotheca fuliginea; experiment: Sphaerotheca test (cucumber)/protective; settings: cucumber plants, protective spray, 500 ppm active ingredient, evaluation 7 days after inoculation
Procedure: • Solvent: 49 parts by weight of N,N-dimethylformamide • Emulsifier: 1 part by weight of alkylaryl polyglycol ether
To produce an appropriate active ingredient formulation, 1 part by weight of active ingredient is mixed with the specified amounts of solvent and emulsifier, and the concentrate is diluted with water to the desired concentration. To test for protective activity, young cucumber plants are sprayed with the formulation of active ingredient at the stated application rate. 1 day after the treatment, the plants are inoculated with a spore suspension of Sphaerotheca fuliginea. The plants are then placed in a greenhouse at 70% relative air humidity and a temperature of 23° C. Evaluation follows 7 days after the inoculation.

Compound	efficacy
OC(Cc1cncs1)(Cc1ccccc1F)C1(Cl)CC1 (stereo not shown) [Compound 60]	100%
CC(C)(C)C(O)(COc1ccc(SC(F)(F)F)cc1)c1cncs1 (stereo not shown) [Compound 41]	95%
CC(C)(C)C(O)(COc1ccc(C2CC2)cc1)c1cncs1 (stereo not shown) [Compound 79]	93%
OC(Cc1cncs1)(Cc1ccccc1Cl)C1(Cl)CC1 (stereo not shown) [Compound 57]	100%
CC(C)(/C=C/Cl)C(O)(COc1ccc(I)cc1)c1cncs1 (stereo not shown) [Compound 53]	94%
CC(C)(C)C(O)(COc1ccc(I)cc1)c1cncs1 (stereo not shown) [Compound 1]	100%
CC(C)(C)C(O)(COc1ccc(Br)cc1)c1cncs1 (stereo not shown) [Compound 2]	99%
CC1(C(O)(COc2ccc(Cl)cc2)c2cncs2)CC1 (stereo not shown) [Compound 14]	95%
CC1(C(O)(COc2ccc(Br)cc2)c2cncs2)CCCCC1 (stereo not shown) [Compound 33]	100%

test system: Puccinia triticina; experiment: Puccinia triticina test (wheat)/protective; format: in vivo; settings: wheat plants, protective spray, 500 ppm active ingredient, evaluation 8 days after inoculation
Source text: Evaluation follows 8 days after the inoculation.

Compound	efficacy
OC(Cc1cncs1)(Cc1ccccc1F)C1(Cl)CC1 (stereo not shown) [Compound 60]	95%
CC(C)(C)C(O)(COc1ccc(SC(F)(F)F)cc1)c1cncs1 (stereo not shown) [Compound 41]	100%
CO/N=C/c1ccc(OCC(O)(c2cncs2)C(C)(C)C)cc1 (stereo not shown) [Compound 3]	89%
CC(C)(/C=C/Cl)C(O)(COc1ccc(I)cc1)c1cncs1 (stereo not shown) [Compound 53]	100%
CC(C)(C)C(O)(COc1ccc(I)cc1)c1cncs1 (stereo not shown) [Compound 1]	100%
CC(C)(C)C(O)(COc1ccc(Br)cc1)c1cncs1 (stereo not shown) [Compound 2]	100%
CC1(C(O)(COc2ccc(Br)cc2)c2cncs2)CCCCC1 (stereo not shown) [Compound 33]	83%

test system: Rhizoctonia solani; experiment: Rhizoctonia test (cotton)/seed treatment; format: in vivo; settings: cottonseed treatment, dose 50 g/dt, greenhouse 20° C. 7 days
Procedure: The test was conducted under greenhouse conditions. Cottonseeds treated with an inventive active compound or a combination of inventive active compounds were sown in 6×6 cm vessels, into a mixture of steamed field soil and sand (1:1). The test compound(s) were dissolved in N-methyl-2-pyrrolidone and diluted to the desired concentration with water. Perlite was inoculated with spores of Rhizoctonia solani. The infected perlite was distributed between the treated cottonseeds. The seeds were covered with a top layer of clay granules and incubated in a greenhouse at 20° C. for 7 days.

Compound	efficiency (emerged and diseased plants)
OC(Cc1cncs1)(Cc1ccccc1F)C1(Cl)CC1 (stereo not shown) [Compound 60]	90%
OC(Cc1cncs1)(Cc1ccccc1Cl)C1(Cl)CC1 (stereo not shown) [Compound 57]	80%
CC(C)(C)C(O)(COc1ccc(I)cc1)c1cncs1 (stereo not shown) [Compound 1]	70%
